Consider 40 compounds from patent publication US12624034B2, “Non-covalent modifiers of AKT1 and uses thereof” (Terremoto Biosciences, Inc., priority 2023, dated 2026).

The term IC50 denotes the midpoint of a concentration-inhibition curve.

Assay [1] addresses T1, AKT2 (Homo sapiens, UniProt P31751).
T1 construct: expressed in transfected cells; host or cells: HEK293
The experiment in a line: Live cell AKT2 target engagement by NanoBRET competitive probe displacement in HEK293 cells. The format is binding. To be noted: 2 h at 37° C., read-out: AKT2 IC50. As for the experimental part: (§1) Determining live cell AKT1 E17K, AKT1 WT, and AKT2 target engagement by NanoBRET competitive probe displacement. […] Briefly, HEK293 cells were transfected with plasmids encoding kinase-NanoLuciferase fusion proteins overnight. Cells were then treated with serial dilutions of compound and an ˜EC50 concentration of fluorescently-tagged ATP-competitive tracer (Promega). After incubation for 2 h at 37° C., luciferase substrate and extracellular luciferase inhibitor were added to all wells, and luminescent intensity at 460 nm and 600 nm were measured on a multimode plate-reader. The ratio of E600/E460 was calculated to give the tracer engagement signal (BRET). IC50 values were calculated by fitting BRET values to a log(inhibitor) vs. response Hill equation.
(In general: In BRET a luciferase serves as donor, and the signal depends on an acceptor being close.)

Assay [2] concerns the target T2, AKT1 WT (Homo sapiens, UniProt P31749).
T2 construct: expressed in transfected cells; host or cells: HEK293
The experiment in a line: Live cell AKT1 WT target engagement by NanoBRET competitive probe displacement in HEK293 cells. The format is binding. To be noted: 2 h at 37° C., read-out: AKT1 WT IC50. As for the experimental part:
as §1

The mark [3] stands for this setting: NanoBRET competitive probe displacement, live HEK293 cells.
[4] abbreviates: NanoBRET live cell target engagement, HEK293 cells.

The structures appear in SMILES notation. Read-outs that look alike come from different tables or passages of the source.

T2 sequence (P31749 whole entry): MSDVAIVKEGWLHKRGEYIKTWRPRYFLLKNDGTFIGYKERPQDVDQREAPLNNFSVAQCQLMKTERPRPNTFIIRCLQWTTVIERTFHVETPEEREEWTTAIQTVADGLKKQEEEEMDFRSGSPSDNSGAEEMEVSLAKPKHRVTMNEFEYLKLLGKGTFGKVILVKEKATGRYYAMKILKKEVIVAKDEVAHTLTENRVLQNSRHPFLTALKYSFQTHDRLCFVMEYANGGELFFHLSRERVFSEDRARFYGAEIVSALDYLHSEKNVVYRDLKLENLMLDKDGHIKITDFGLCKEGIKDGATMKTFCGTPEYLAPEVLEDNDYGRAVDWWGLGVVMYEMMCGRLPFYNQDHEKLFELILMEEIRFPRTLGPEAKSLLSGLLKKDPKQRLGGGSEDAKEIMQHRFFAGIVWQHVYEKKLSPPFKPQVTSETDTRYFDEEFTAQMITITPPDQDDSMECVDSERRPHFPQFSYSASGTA
T1 sequence (P31751 whole entry): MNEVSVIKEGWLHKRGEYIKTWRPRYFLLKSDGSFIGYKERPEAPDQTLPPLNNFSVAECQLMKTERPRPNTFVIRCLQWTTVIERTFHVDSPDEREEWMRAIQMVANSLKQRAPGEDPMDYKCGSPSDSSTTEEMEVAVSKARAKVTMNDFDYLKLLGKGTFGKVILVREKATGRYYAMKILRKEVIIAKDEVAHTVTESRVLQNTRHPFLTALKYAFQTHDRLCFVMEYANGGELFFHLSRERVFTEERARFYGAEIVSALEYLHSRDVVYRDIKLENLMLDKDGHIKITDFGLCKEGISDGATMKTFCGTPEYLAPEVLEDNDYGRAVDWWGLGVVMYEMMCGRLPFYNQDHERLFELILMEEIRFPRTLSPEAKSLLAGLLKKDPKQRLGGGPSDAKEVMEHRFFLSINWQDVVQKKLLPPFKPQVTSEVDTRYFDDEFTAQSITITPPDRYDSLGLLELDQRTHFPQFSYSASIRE

In the case of `Nc1ncccc1-c1nc2ccc(-n3cccn3)nc2n1-c1ccc2c(c1)CC[C@@H]2NC1CC2(C1)CN(c1ccccn1)C2` [Compound 448], the figures for the IC50 in assay [1] (setting [3]) and in assay [2] (setting [3]) were 1760 nM and 47.8 nM, respectively.
In the same order, the values of `Cc1ccc(C(=O)N[C@H]2CCc3cc(-n4c(-c5cccnc5N)nc5ccc(-n6cnc(C(F)F)n6)nc54)ccc32)cn1` [Compound 430] are 2490 nM and 83.5 nM.
Turning to `Cc1cn2cc(C(=O)N[C@H]3CCc4cc(-n5c(-c6cccnc6N)nc6ccc(-n7cccn7)nc65)ccc43)ccc2n1` [Compound 72], the IC50 in assay [1] (setting [4]) turned out to be 28.1 nM; in assay [2] (setting [4]), 7.95 nM.
Turning to `Cc1ccc(C(=O)N[C@H]2CCc3cc(-n4c(-c5ccccc5)nc5ccc(-c6ccn(C7CC7)n6)nc54)ccc32)cn1` [Compound 431, (S)—N-(5-(5-(1-cyclopropyl-1H-pyrazol-3-yl)-2-phenyl-3H-imidazo[4,5-b]pyridin-3-yl)-2,3-dihydro-1H-inden-1-yl)-6-methylnicotinamide], the concentration for half-maximal inhibition (IC50) is 900 nM in assay [1] (setting [3]) and 16.7 nM in assay [2] (setting [3]).
For the compound `Nc1ncccc1-c1nc2ccc(-n3cccn3)nc2n1-c1ccc2c(c1)CC[C@@H]2NC1CCN(C(=O)C2CC2)CC1F` (some centres unmarked) [Compound 446], the IC50 was 1330 nM in assay [1] (setting [3]) and 31.9 nM in assay [2] (setting [3]).
With `CN(C(=O)N[C@H]1CCc2cc(-n3c(-c4cccnc4N)nc4ccc(-n5cccn5)nc43)ccc21)c1ccccc1` [Compound 132, (S)-3-(5-(2-(2-aminopyridin-3-yl)-5-(1H-pyrazol-1-yl)-3H-imidazo[4,5-b]pyridin-3-yl)-2,3-dihydro-1H-inden-1-yl)-1-methyl-1-phenylurea], the figures for the IC50 in assay [1] (setting [4]) and in assay [2] (setting [4]) were 2550 nM and greater than 1000 nM, respectively.
For `Cc1nnc(-c2ccc3nc(-c4cccnc4N)n(-c4ccc5c(c4)CC[C@@H]5NC4CCN(C(=O)C5CC5)CC4)c3n2)s1` [Compound 516], the IC50 in assay [1] (setting [3]) amounted to 6240 nM; in assay [2] (setting [3]) it was 102 nM.
In the same order, the values of `COc1cc(C(=O)N[C@H]2CCc3cc(-n4c(-c5cccnc5N)nc5ccc(-n6cccn6)nc54)ccc32)sn1` [Compound 429] are 57 nM and 5.64 nM.
In the case of `Nc1ncccc1-c1nc2ccc(-n3cccn3)nc2n1-c1ccc2c(c1)CC[C@@H]2NC(=O)c1cnc2c(c1)CC(=O)N2` [Compound 224], the IC50 in assay [1] (setting [4]) is 342 nM; in assay [2] (setting [4]), 32.1 nM.
In the same order, the values of `Nc1ncccc1-c1nc2ccc(-n3cccn3)nc2n1-c1ccc2c(c1)CC[C@@H]2NC(=O)c1ccc(F)nc1` [Compound 264] are 163 nM and 9.54 nM.
For `C#Cc1cc(C(=O)N[C@H]2CCc3cc(-n4c(-c5cccnc5N)nc5ccc(-n6cccn6)nc54)ccc32)ccn1` [Compound 105], in that order: 109 nM and 11.2 nM.
For the compound `Nc1ncccc1-c1nc2ccc(-n3cccn3)nc2n1-c1ccc2c(c1)CC[C@@H]2NC1CCN(C(=O)[C@@H]2CCO2)CC1` [Compound 424], the IC50 in assay [1] (setting [3]) is 5380 nM; in assay [2] (setting [3]) it was 122 nM.
In the same order, the values of `CCC#Cc1ccc2nc(-c3cccnc3N)n(-c3ccc4c(c3)CC[C@@H]4NC(=O)c3ccc(C(F)F)nc3)c2n1` [Compound 412] are 686 nM and 26.4 nM.
As to `Nc1ncccc1-c1nc2ccc(-n3cccn3)nc2n1-c1ccc2c(c1)CC[C@@H]2NC1CCN(C(=O)C2CC2)C1` (some centres unmarked) [Compound 462], the IC50 was 2370 nM in assay [1] (setting [3]) and 225 nM in assay [2] (setting [3]).
`Nc1ncccc1-c1nc2ccc(-n3cccn3)nc2n1-c1ccc2c(c1)CC[C@@H]2NC(=O)c1ccc2[nH]ncc2c1` [Compound 193]: the values for the IC50 in assay [1] (setting [4]) and in assay [2] (setting [4]) were 42.3 nM and 6.71 nM, respectively.
For the compound `Nc1ncccc1-c1nc2ccc(-n3cccn3)nc2n1-c1ccc2c(c1)CC[C@@H]2NC1CCc2nc(C(F)F)sc21` (some centres unmarked) [Compound 601], the IC50 in assay [1] (setting [3]) is 2500 nM; in assay [2] (setting [3]), 102 nM.
With `Cn1ccc(C#Cc2cc(C(=O)N[C@H]3CCc4cc(-n5c(-c6cccnc6N)nc6ccc(-n7cccn7)nc65)ccc43)ccn2)n1` [Compound 182], the IC50 in assay [1] (setting [4]) turned out to be 219 nM; in assay [2] (setting [4]), 11.5 nM.
For `COC1CCN(c2ccn(-c3ccc4nc(-c5cccnc5N)n(-c5ccc6c(c5)CC(F)[C@@H]6NC5CCN(C(=O)C6CC6)CC5)c4n3)n2)CC1` (some centres unmarked) [Compound 546], the figures for the IC50 in assay [1] (setting [3]) and in assay [2] (setting [3]) were 221 nM and 9.86 nM, respectively.
For `Cn1ccc(N2CCC(N[C@@H]3c4ccc(-n5c(-c6cccnc6N)nc6ccc(-n7cccn7)nc65)cc4CC3F)CC2)n1` (some centres unmarked) [Compound 519], in that order: 1220 nM and 39.2 nM.
`Cc1cc(C(=O)N[C@H]2CCc3cc(-n4c(-c5cccnc5N)nc5ccc(-n6cccn6)nc54)ccc32)cc(C(F)(F)F)c1O` [Compound 416]: the IC50 in assay [1] (setting [3]) came to 34 nM; in assay [2] (setting [3]) it was 1.43 nM.
For `CN(C)C(=O)c1ccn(-c2ccc3nc(-c4cccnc4N)n(-c4ccc5c(c4)CC[C@@H]5NC4CCN(C(=O)C5CC5)CC4)c3n2)n1` [Compound 591], in that order: 962 nM and 25.2 nM.
For `Nc1ncccc1-c1nc2ccc(-c3ccn(C(F)F)n3)nc2n1-c1ccc2c(c1)CC[C@@H]2n1ccnn1` [Compound 315], the IC50 in assay [1] (setting [4]) amounted to 617 nM; in assay [2] (setting [4]), 23.9 nM.
With `CN(C)[C@H]1CCc2cc(-n3c(-c4cccnc4N)nc4ccc(-n5cccn5)nc43)ccc21` [Compound 340], the IC50 worked out at 1010 nM in assay [1] (setting [4]) and 37.7 nM in assay [2] (setting [4]).
As for `Nc1ncccc1-c1nc2ccc(-n3cccn3)nc2n1-c1ccc2c(c1)CC[C@@H]2NC1CCN(C(=O)C2CC2)CC1F` (some centres unmarked) [Compound 444], the values for the IC50 in assay [1] (setting [3]) and in assay [2] (setting [3]) were 499 nM and 23.5 nM, respectively.
`Nc1ncccc1-c1nc2ccc(-n3cccn3)nc2n1-c1ccc2c(c1)CC[C@@H]2NC(=O)c1cnc2c(c1)COC2` [Compound 106]: the IC50 in assay [1] (setting [4]) is 36 nM; in assay [2] (setting [4]), 6.39 nM.
Consider `Cc1ccc(C(=O)N[C@H]2CCc3cc(-n4c(-c5cccnc5N)nc5ccc(-n6ncnc6C)nc54)ccc32)cn1` [Compound 418, (S)—N-(5-(2-(2-aminopyridin-3-yl)-5-(5-methyl-1H-1,2,4-triazol-1-yl)-3H-imidazo[4,5-b]pyridin-3-yl)-2,3-dihydro-1H-inden-1-yl)-6-methylnicotinamide], for which the IC50 came out at 2680 nM in assay [1] (setting [3]) and 76 nM in assay [2] (setting [3]).
Take `Cc1ccc(C(=O)N[C@H]2CCc3cc(-n4c(-c5cccnc5N)nc5ccc(-c6cnn(C)n6)nc54)ccc32)cn1` [Compound 268]: the IC50 in assay [1] (setting [4]) was found to be 100 nM; in assay [2] (setting [4]), 7.96 nM.
`Nc1ncccc1-c1nc2ccc(-n3cccn3)nc2n1-c1ccc2c(c1)CC[C@@H]2NC(=O)c1ccc(C(F)(F)F)nc1` [Compound 77]: the IC50 in assay [1] (setting [4]) was determined as 50.1 nM; in assay [2] (setting [4]), 13.6 nM.
On to `Nc1ncccc1-c1nc2ccc(C3CC3)nc2n1-c1ccc2c(c1)CC[C@@H]2NC(=O)c1ccc(C(F)F)nc1` [Compound 130], for which the IC50 in assay [1] (setting [4]) was 2290 nM; in assay [2] (setting [4]), 46.4 nM.
In the same order, the values of `Cc1ncccc1C(=O)N[C@H]1CCc2cc(-n3c(-c4cccnc4N)nc4c(C)cc(-n5cccn5)nc43)ccc21` [Compound 100] are 24.9 nM and 17.2 nM.
Take `Nc1ncccc1-c1nc2ccc(-n3cccn3)nc2n1-c1ccc2c(c1)CC[C@@H]2NC1CCc2cnccc21` (some centres unmarked) [Compound 473]: the IC50 in assay [1] (setting [3]) stood at 28 nM; in assay [2] (setting [3]) it was 19 nM.
As for `Nc1ncccc1-c1nc2ccc(-c3ccn(C(F)F)n3)nc2n1-c1ccc2c(c1)CC[C@@H]2NC(=O)c1ccc(C(F)F)nc1` [Compound 74], the IC50 in assay [1] (setting [4]) came to 34.8 nM; in assay [2] (setting [4]) it was 4.94 nM.
For `Nc1ncccc1-c1nc2ccc(-n3cccn3)nc2n1-c1ccc2c(c1)CC[C@@H]2N[C@@H]1CCN(c2ccccc2)C1` [Compound 469], the IC50 came out at 1130 nM in assay [1] (setting [3]) and 93.4 nM in assay [2] (setting [3]).
Consider `Nc1ncccc1-c1nc2ccc(-n3nccn3)nc2n1-c1ccc2c(c1)CC[C@@H]2NC(=O)c1ccns1` [Compound 413], for which the IC50 turned out to be 1470 nM in assay [1] (setting [3]) and 21.7 nM in assay [2] (setting [3]).
For `Nc1ncccc1-c1nc2ccc(-n3cccn3)nc2n1-c1ccc2c(c1)CC[C@@H]2NC1CCc2cc(O)ccc21` (single isomer, unassigned) [Compound 499], in that order: 897 nM and 45.6 nM.
With `CS(=O)(=O)Nc1ccc(C(=O)N[C@H]2CCc3cc(-n4c(-c5cccnc5N)nc5ccc(-n6cccn6)nc54)ccc32)cc1` [Compound 195], the IC50 in assay [1] (setting [4]) is 48.9 nM; in assay [2] (setting [4]) it was 12.4 nM.
For the compound `Nc1ncccc1-c1nc2ccc(-c3ccn(C4CCOCC4)n3)nc2n1-c1ccc2c(c1)CC[C@@H]2NC1CCN(C(=O)C2CC2)CC1` [Compound 555], the IC50 was determined as 1570 nM in assay [1] (setting [3]) and 64.4 nM in assay [2] (setting [3]).
`Cn1cc(Cc2nncn2[C@H]2CCc3cc(-n4c(-c5cccnc5N)nc5ccc(-n6cccn6)nc54)ccc32)cn1` [Compound 228]: the IC50 in assay [1] (setting [4]) came out at 2030 nM; in assay [2] (setting [4]), 586 nM.
As to `COC1CN(c2ccn(-c3ccc4nc(-c5cccnc5N)n(-c5ccc6c(c5)CC(F)[C@@H]6NC5CCN(C(=O)C6CC6)CC5)c4n3)n2)C1` (some centres unmarked) [Compound 553], the IC50 in assay [1] (setting [3]) came out at 344 nM; in assay [2] (setting [3]), 7.04 nM.
Take `Nc1ncccc1-c1nc2ccc(-n3cccn3)nc2n1-c1ccc2c(c1)CC[C@@H]2NC(=O)c1cccnc1OC(F)(F)F` [Compound 78]: the figures for the IC50 in assay [1] (setting [4]) and in assay [2] (setting [4]) were 1910 nM and 106 nM, respectively.
